Entries after “also recorded” stand apart in the source; their conditions may differ. Ends that are not written are not given here.
Legend:
[1] = test system: retinal ganglion neurons; assay: Survival of retinal ganglion neurons after NMDA injection into the eye (Brn3A mRNA, quantitative RT-PCR); type: in vivo, C57 B16 mice; settings: mice, after 4 days
Procedure: C57 B16 mice received, in the right eye, 1 μl of injection buffer (PBS or 9‰ NaCl) containing either 1 mM of NMDA, or 1 mM of NMDA supplemented with 30 ng of the chimeric polypeptide, and in the left eye, the same volume of injection buffer, without additive.
The survival of the ganglion neurons was determined by measuring the level of expression of Brain 3A (Brn3A), a transcription factor which, in the retina, is specifically expressed in the ganglion neurons (Xiang et al., J. Neurosci., 15, 4762-4785, 1995).
After 4 days, the animals are sacrificed, the retinas are removed, and the mRNA is extracted therefrom.
The level of expression of Bm3A mRNA was determined by quantitative RT-PCR using the hypoxanthine phosphoribosyltransferase (HPRT) gene as reference gene, and the ratio between the expression of the Bm3A mRNA in the right eye and in the left eye was calculated.
The results are illustrated by FIG. 5. The additives used are indicated along the x-axis; the ratio between the amounts of Brn3A mRNA (standardized relative to the HPRT mRNA) in the right eye and in the left eye is indicated along the y-axis.

[2] = test system: endogenous transfer of Otx2 to cells of the visual cortex; assay: Infusion of peptides into the right visual cortex of adult mice, count of cells expressing Otx2; type: in vivo; settings: for number of cells expressing Otx2: adult mice, 0.25 mg/ml, 1 μl/h for 7 days into right visual cortex, infused vs control hemisphere
Procedure: For this purpose, the RK-Otx2 peptide (0.25 mg/ml), the AA-Otx2 peptide (0.25 mg/ml), or PBS buffer, combined with polysialic acid (0.25 mg/ml, in order to enable diffusion of the peptides and to avoid nonspecific binding thereof to neurons expressing polysialic acid at their surface), were slowly infused (1 μl/h) for 7 days into the right visual cortex of adult mice, using osmotic minipumps (Alzet 1003D, Alza) connected to stereotaxically implanted cannulas (Hensch et al., Science, 282, 1504-8, 1998; Fagiolini & Hensch, Nature, 404, 183-6, 2000). At the end of the infusion, the mice are perfused with 4% PFA, and brain sections (25 μm) are cut in order to study the localization of Otx2 and that of the RK-Otx2 peptide. Otx2 is visualized using a rat anti-Otx2 monoclonal antibody diluted to 1/200 (Sugiyama et al., Cell, 134, 508-20, 2008), followed by a donkey anti-rat antibody labeled with Alexa 488 (Molecular Probes), diluted to 1/2000. The RK-Otx2 peptide is visualized using streptavidin labeled with Cy5.
The cells expressing Otx2 were counted over a surface area of 700×350 μm encompassing layers I/II and IV of the binocular zone of the visual cortex.
It was verified, by Sytox green labeling, that the infusion had no effect in itself on the number of cells. In order to be sure that the decrease in the number of cells expressing Otx2 was not due to cell death, an infusion of this peptide was carried out according to the protocol described above, and the number of cells expressing Otx2 was measured 8 days after the end of the infusion.

[3] = test system: binding of AP-Nt-Otx2 to bipolar cells and ganglion cells; assay: Antagonism of AP-Nt-Otx2 binding to sections of retinas by peptides; settings: 2 μg/ml of peptide
Procedure: In order to verify that the RK-Otx2 peptide indeed had the same binding specificity as AP-Nt-Otx2, the ability of the RK-Otx2 and AA-Otx2 polypeptides to antagonize the binding of AP-Nt-Otx2 was tested. The test for binding of AP-Nt-Otx2 to sections of retinas was carried out as described above, with the exception that the incubation of the supernatant containing AP-Nt-Otx2 was carried out in the presence of 2 μg/ml of the RK-Otx2 peptide or of the AA-Otx2 peptide.

[4] = test system: binding of AP-Nt-Otx2 to its target cells of the cerebral cortex; assay: Blocking of AP-Nt-Otx2 binding to cortical target cells on adult mouse brain sections; settings: whole Otx2 1 μg/ml, peptides 2 μg/ml
Procedure: The interaction, with the cells of the cerebral cortex, of the AP-Otx2, AP-Nt-Otx2, AP-Hd-Otx2 and AP-HdAA-Otx2 fusion proteins ([…] a variant of AP-Nt-Otx2 in which the RK amino acid doublet has been replaced with the AA doublet), alone (culture supernatant diluted to 1/20th) or in the presence of a whole Otx2 (1 μg/ml) or of the RK-Otx2 or AA-Otx2 peptides (2 μg/ml), was tested on cryostat sections of adult mouse brains, using the protocol described in example 1 above.

[5] = test system: retinal ganglion neurons; settings: previously shown, application PCT/FR 2009/000031; cited from earlier work
[6] = test system: parvalbumin neurons of the visual cortex; assay: WFA labeling and parvalbumin expression in visual cortex after peptide infusion; type: in vivo; settings: adult mice
Procedure: In addition, treated mouse brain frontal sections were prepared, as described in example 4 above, in order to determine the influence of the RK-Otx2 peptide on parvalbumin neurons. The sections were labeled either with WFA, as described in example 3, or using a mouse anti-parvalbumin monoclonal antibody ( 1/500, Sigma-Aldrich), which was visualized using a donkey anti-mouse antibody labeled with Cy3. The labeled cells were quantified as described in example 4.

[7] = test system: retinal ganglion neurons (RGCs) and bipolar cells on sections of retina; assay: Binding test of AP fusion proteins and biotinylated peptides on sections of retina; settings: supernatants diluted to 1/20, 2 hours at room temperature, alkaline phosphatase detection
Procedure: The sequences encoding the human Otx2 protein or encoding the fragments tested were cloned into the vector pAPtag-5 (GenHunter), in frame with the sequence encoding alkaline phosphatase. The various constructions carried out are represented diagrammatically in FIG. 1. HEK 293 cells cultured in culture dishes 10 cm in diameter were transfected with 10 μg of each of the vectors constructed, purified beforehand, using Lipofectamine 2000 (Invitrogen) according to the manufacturer's instructions. The transfected cells were incubated for 48 hours in DMEM/F12, supplemented with 10% of fetal bovine serum (FCS). The supernatant was collected, centrifuged at 100×g for 5 minutes and stored at −80° C. This supernatant is used, without purification, for testing the binding of the chimeric proteins on sections of retina. […]
Biotinylated peptides corresponding to various fragments of the N-terminal domain+homeodomain portion of Otx2 were synthesized and the binding thereof to sections of retina, prepared as described above, was tested. The incubation of the peptides with the sections of retina was carried out under the same conditions as those described above, and then the sections bearing the bound peptides were incubated with alkaline phosphatase-labeled streptavidin, and the alkaline phosphatase activity was detected as described above.

[8] = test system: plasticity of the visual cortex; assay: Ocular dominance plasticity after 4 days monocular deprivation, single-unit extracellular electrophysiology; type: in vivo; settings: adult mice; for ocular dominance induced by monocular deprivation: 4 days monocular deprivation after treatment
Procedure: The RK-Otx2 peptide or the AA-Otx2 peptide was infused in adult mice (therefore after closing of the critical period of plasticity), as described in example 4 above. Chondroitinase-ABC, or the injection buffer (deionized water+0.1% BSA), were injected (0.4 μl for each injection) at 3 sites surrounding the visual cortex (AP lambda, LM 1.5 mm; AP lambda, 4.0 mm; AP+1.5 mm; LM 2.5 mm) at two different depths (300 and 500 μm).
After infusion of the peptides or injection of chondroitinase ABC, the mice are subjected to monocular deprivation for 4 days, and the responses to visual stimuli are then measured by single-unit extracellular electrophysiology. The electrophysiology recordings are carried out under nembutal/chlorprothixene anesthesia using standard techniques (Gordon & Stryker, J Neurosci, 16, 3274-86, 1996; Mataga et al., Neuron, 44, 1031-41, 2004). 5 to 7 single-unit recordings were carried out for each mouse, on both sides of the medial-lateral axis of the primary visual cortex, in order to cover the monocular zone and the binocular zone, and to avoid sampling biases. Cell dominance scores were assigned to the cell responses, using a 7-point classification system (Wiesel & Hubel, J Neurophysiol, 26, 978-93, 1963) (Gordon & Stryker, J Neurosci, 16, 3274-86, 1996). The ocular dominance in the binocular zone was calculated for each mouse according to a contralateral bias index (CBI), determined as follows:
(CBI): [(n1−n7)+⅔(n2−n6)+⅓(n3−n5)+N]/2N, where N=total number of cells and nx=number of cells corresponding to an ocular dominance score of x.
This weighted mean of the bias in favor of one or other eye can range from 0, for complete ipsilateral dominance, to 1, for complete contralateral dominance.

[9] = test system: GAGs of the perineuronal net associated with parvalbumin neurons; assay: Chondroitinase ABC treatment of adult mouse brain sections: WFA labeling and AP fusion protein binding; settings: brain sections incubated 24 hours with chondroitinase ABC 2 U/ml
Procedure: In order to determine whether the perineuronal net associated with parvalbumin neurons was involved in the binding between AP-Nt-Otx2 and its target cells, the binding of AP-Otx2 was tested on cryostat sections of adult mouse brains fixed with methanol, and then incubated for 24 hours in the presence of chondroitinase ABC (2 U/ml) in a buffer containing 50 mM Tris [pH 8.0], 40 mM of sodium acetate, 0.1% BSA and protease inhibitors. In parallel, the sections, untreated or treated with chondroitinase ABC, were incubated with 0.01 mg/ml of Wisteria floribunda agglutinin lectin (WFA; Sigma-Aldrich), which binds to the GAGs of the perineuronal net, and which is labeled with FITC.

Q: With CN[C@H](CC(=O)O)C(=O)O [NMDA, N-methyl-D-aspartate, reference compound] as the compound, how does the “decrease in the amount of ganglion neurons” value ([1]; 1 μl of 1 mM NMDA alone into right eye, Brn3A mRNA) read?
A: approximately 60%

Q: For “AAQRRERTTFTRAQL (Targeting peptide inactive mutant) [AA-Otx2]”, which “number of cells expressing Otx2” value [2] is on record?
A: only a small, insignificant reduction

Q: And the “blocking of the binding of AP-Nt-Otx2 to the bipolar cells and ganglion cells” value [3]?
A: has no effect on this binding

Q: With “Otx2: Orthodenticle homolog 2, homeoprotein containing a bicoid-type homeodomain” as the compound, how does the “blocking of the binding of AP-Nt-Otx2 to its cortical target cells” value [4] read?
A: block the binding of AP-Nt-Otx2 to its target cells

Q: And the “protection of retinal ganglion neurons against the toxic effects of NMDA” value [5]?
A: protects retinal ganglion neurons against the toxic effects of N-methyl-D-aspartate (NMDA)

Q: For “RKQRRERTTFTRAQL (also: biotin (position not given here)) [RK-Otx2]”, which “expression of the sites for the binding of WFA and of parvalbumin” value ([6]; after peptide infusion) is on record?
A: decreases the expression of the sites for the binding of WFA, and also that for parvalbumin

Q: What about the “decrease in the number of cells surrounded by sites for the binding of WFA” value ([6]; infused vs control hemisphere) of the same compound?
A: 51.3%

Q: What about the “decrease in the number of parvalbumin-positive cells” value ([6]; infused vs control hemisphere) of the same compound?
A: 56.2%

Q: What about the “binding to retinal cells” value [7] of the same compound?
A: has the same binding specificity as the AP-Otx2 and AP-Nt-Otx2 fusion proteins; also recorded: binds, like AP-Nt-Otx2, to the ganglion and bipolar cells

Q: And the “amount of peptide detected in the visual cortex” value ([2]; 8 days after the end of infusion)?
A: only very small amounts

Q: What about the “number of cells expressing Otx2 in the treated hemisphere” value ([2]; 8 days after the end of the infusion) of the same compound?
A: restored to the level of that of the control hemisphere

Q: And the “number of cells expressing Otx2” value [2]?
A: significantly reduces the number of cells expressing Otx2

Q: What about the “ocular dominance induced by monocular deprivation” value [8] of the same compound?
A: induces an ocular dominance

Q: What about the “contralateral bias index (CBI)” value ([8]; after peptide infusion and 4 days monocular deprivation, decrease from 0.7) of the same compound?
A: 0.57

Q: What about the “blocking of the binding of AP-Nt-Otx2 to the bipolar cells and ganglion cells” value [3] of the same compound?
A: blocks the binding of AP-Nt-Otx2 to the bipolar cells and to the ganglion cells

Q: What about the “blocking of the binding of AP-Nt-Otx2 to its cortical target cells” value [4] of the same compound?
A: block the binding of AP-Nt-Otx2 to its target cells

Q: With “chimeric polypeptide: amino acids 1-97 of Otx2 (N-terminal domain and homeodomain) fused with the VP16 trans-activator domain of the herpes virus (SEQ ID NO: 4) (MLGDGDSPGPGFTPHDSAPYGALDMADFEFEQMFTDALGIDEYGG; VP16 transactivator domain)” as the compound, how does the “protection of ganglion neurons against the toxic effects of NMDA (Brn3A mRNA ratio right eye/left eye)” value ([1]; 1 μl into right eye, 1 mM NMDA plus 30 ng chimeric polypeptide) read?
A: effectively protects the ganglion neurons against the toxic effects of the NMDA

Q: For chondroitinase ABC, which “effect of chondroitinase ABC treatment on binding of the AP fusion protein” value [9] is on record?
A: abolishes the binding of AP-Nt-Otx2

Q: What about the “effect on GAGs of the perineuronal net (WFA labeling)” value [9] of the same compound?
A: destroys the GAGs of the perineuronal net

Q: What about the “ocular dominance induced by monocular deprivation” value [8] of the same compound?
A: as in those treated with the chondroitinase ABC
